Measured values from patent US9695155B2, “Herbicidal substituted pyrimidinyloxy benzene compounds” (E. I. DU PONT DE NEMOURS AND COMPANY, priority 2013, dated 2017).

Legend:
blackgrass [1] = assay: Test D preemergence; assay type: in vivo, Alopecurus myosuroides; conditions: Alopecurus myosuroides, pre-emergence
Procedure, shortened: (§1)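 Plant response is a visual score from 0 (no effect) to 100 (complete control) relative to controls. Plants were kept in a controlled growth environment for 7 to 21 days after spraying. Preemergence treatments went onto silt loam soil; postemergence ones onto 1- to 4-leaf seedlings.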

blackgrass [2] = assay: Test D postemergence; assay type: in vivo, Alopecurus myosuroides; conditions: Alopecurus myosuroides, post-emergence, Postemergence, scale 0 to 100 (0 no effect, 100 complete control), read-out: Plant response rating, Blackgrass
Procedure, shortened: as §1

pigweed = assay: Test D postemergence; assay type: in vivo, Amaranthus retroflexus; conditions: Amaranthus retroflexus, post-emergence
Procedure, shortened: as §1

spring barley = assay: Test D preemergence; assay type: in vivo, Hordeum vulgare; conditions: Hordeum vulgare, pre-emergence
Procedure, shortened: as §1

Italian ryegrass = assay: Test E postemergence; assay type: in vivo, Lolium multiflorum; conditions: Lolium multiflorum, post-emergence, read-out: Plant response rating, Ryegrass, Italian
Procedure, shortened: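 Compound in a non-phytotoxic solvent mixture with surfactant was applied preemergence to seeds in silt loam soil, or postemergence to plants 2 to 18 cm tall grown in peat-based potting medium. Plants were kept in a greenhouse for 14 to 21 days, then rated visually against untreated controls on a 0 (no effect) to 100 (complete control) scale.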

wild buckwheat = assay: Test D preemergence; assay type: in vivo, Polygonum convolvulus; conditions: Fallopia convolvulus, pre-emergence
Procedure, shortened: as §1

canarygrass = assay: Test D preemergence; assay type: in vivo, Phalaris minor; conditions: Phalaris minor, pre-emergence
Procedure, shortened: as §1

hairy beggarticks = assay: Test E postemergence; assay type: in vivo, Bidens pilosa; conditions: Bidens pilosa, post-emergence, read-out: Plant response rating, Beggarticks
Source text: Seeds of plant species selected from corn (Zea mays), soybean (Glycine max), velvetleaf (Abutilon theophrasti), lambsquarters (Chenopodium album), wild poinsettia (Euphorbia heterophylla), palmer pigweed (Amaranthus palmeri), waterhemp (common waterhemp, Amaranthus rudis), surinam grass (Brachiaria decumbens), large (Lg) crabgrass (Digitaria sanguinalis), Brazilian crabgrass (Digitaria horizontalis), fall panicum (Panicum dichotomiflorum), giant foxtail (Setaria faberii), green foxtail (Setaria viridis), goosegrass (Eleusine indica), johnsongrass (Sorghum halepense), ragweed (common ragweed, Ambrosia elatior), barnyardgrass (Echinochloa crus-galli), sandbur (southern sandbur, Cenchrus echinatus), arrowleaf sida (Sida rhombifolia), Italian ryegrass (Lolium multiflorum), dayflower (Virginia (VA) dayflower, Commelina virginica), field bindweed (Convolvulus arvensis), morningglory (Ipomoea coccinea), nightshade (eastern black nightshade, Solanum ptycanthum), kochia (Kochia scoparia), yellow nutsedge (Cyperus esculentus), cocklebur (common cocklebur, Xanthium strumarium), smartweed (ladysthumb smartweed, and hairy beggarticks (Bidens pilosa), were planted into a silt loam soil and treated preemergence with test chemicals formulated in a non-phytotoxic solvent mixture which included a surfactant.
At the same time, plants from these crop and weed species and also horseweed (Canada horseweed, Conyza canadensis), waterhemp_RES1, (ALS & Triazine resistant common waterhemp, Amaranthus rudis), and waterhemp_RES2, (ALS & HPPD resistant common waterhemp, Amaranthus rudis) were planted in pots containing Redi-Earth® planting medium (Scotts Company, 14111 Scottslawn Road, Marysville, Ohio 43041) comprising spaghnum peat moss, vermiculite, wetting agent and starter nutrients were treated with postemergence applications of test chemicals formulated in the same manner. Plants ranged in height from 2 to 18 cm for postemergence treatments (1- to 4-leaf stage). Treated plants and controls were maintained in a greenhouse for 14 to 21 days, after which time all species were compared to controls and visually evaluated. Plant response ratings, summarized in Table E, are based on a scale of 0 to 100 where 0 is no effect and 100 is complete control. A dash (-) response means no test result.

windgrass = assay: Test D preemergence; assay type: in vivo, Apera spica-venti; conditions: Apera spica-venti, pre-emergence
Procedure, shortened: as §1

chickweed = assay: Test D postemergence; assay type: in vivo, Stellaria media; conditions: Stellaria media, post-emergence
Procedure, shortened: as §1

speedwell = assay: Test D preemergence; assay type: in vivo, Veronica persica; conditions: Veronica persica, pre-emergence
Procedure, shortened: as §1

bluegrass = assay: Test D preemergence; assay type: in vivo, Poa annua; conditions: Poa annua, pre-emergence
Procedure, shortened: as §1

[3] = Postemergence, 31 g ai/ha, scale 0 to 100
[4] = Postemergence, 62 g ai/ha, scale 0 to 100
[5] = Postemergence, 125 g ai/ha, scale 0 to 100
[6] = postemergence, 8 g ai/ha, scale 0 to 100, 0 no effect, 100 complete control
[7] = postemergence, 16 g ai/ha, scale 0 to 100, 0 no effect, 100 complete control

Compound: Clc1cnc(Oc2ccccc2-n2cc(Br)cn2)nc1 [Compound 7, 2-[2-(4-bromo-1H-pyrazol-1-yl)phenoxy]-5-chloropyrimidine]
- pest or weed control at 16 g/ha (blackgrass [1]; 16 g ai/ha, scale 0 (no effect) to 100 (complete control), read-out: Plant response rating, Blackgrass): 0%
- pest or weed control at 31 g/ha (blackgrass [1]; 31 g ai/ha, scale 0-100, read-out: Plant response rating, Blackgrass): 0%
- pest or weed control at 62 g/ha (blackgrass [1]; 62 g ai/ha, scale 0-100, read-out: Plant response rating, Blackgrass): 0%
- pest or weed control at 125 g/ha (blackgrass [1]; 125 g ai/ha, scale 0-100, read-out: Plant response rating, Blackgrass): 0%
- pest or weed control at 250 g/ha (blackgrass [1]; 250 g ai/ha, scale 0-100, read-out: Plant response rating, Blackgrass): 15%
- pest or weed control at 62 g/ha (blackgrass [2]; 62 g ai/ha): 5%
- pest or weed control at 16 g/ha (blackgrass [2]; 16 g ai/ha): 0%
- pest or weed control at 31 g/ha (blackgrass [2]; 31 g ai/ha): 5%
- pest or weed control at 125 g/ha (blackgrass [2]; 125 g ai/ha): 10%
- pest or weed control at 250 g/ha (blackgrass [2]; 250 g ai/ha): 25%
- pest or weed control at 16 g/ha (pigweed; 16 g ai/ha, scale 0-100, read-out: Plant response rating, Pigweed): 70%
- pest or weed control at 31 g/ha (pigweed; 31 g ai/ha, scale 0 to 100 (0 no effect, 100 complete control), read-out: Plant response rating, Pigweed): 90%
- pest or weed control at 62 g/ha (pigweed; 62 g ai/ha, scale 0 to 100 (0 no effect, 100 complete control), read-out: Plant response rating, Pigweed): 100%
- pest or weed control at 125 g/ha (pigweed; 125 g ai/ha, scale 0 to 100 (0 no effect, 100 complete control), read-out: Plant response rating, Pigweed): 100%
- pest or weed control at 250 g/ha (pigweed; 250 g ai/ha, scale 0 to 100 (0 no effect, 100 complete control), read-out: Plant response rating, Pigweed): 100%
- plant injury at 16 g/ha (spring barley; 16 g ai/ha, scale 0 (no effect) to 100 (complete control), read-out: Plant response rating, Barley, Spring): 0%
- plant injury at 31 g/ha (spring barley; 31 g ai/ha, scale 0-100, read-out: Plant response rating, Barley, Spring): 0%
- plant injury at 62 g/ha (spring barley; 62 g ai/ha, scale 0-100, read-out: Plant response rating, Barley, Spring): 0%
- plant injury at 125 g/ha (spring barley; 125 g ai/ha, scale 0-100, read-out: Plant response rating, Barley, Spring): 0%
- plant injury at 250 g/ha (spring barley; 250 g ai/ha, scale 0-100, read-out: Plant response rating, Barley, Spring): 0%
- pest or weed control at 31 g/ha (Italian ryegrass; [3]): 0%
- pest or weed control at 62 g/ha (Italian ryegrass; [4]): 0%
- pest or weed control at 125 g/ha (Italian ryegrass; [5]): 0%
- pest or weed control at 8 g/ha (Italian ryegrass; [6]): 0%
- pest or weed control at 16 g/ha (Italian ryegrass; [7]): 0%
- pest or weed control at 16 g/ha (wild buckwheat; 16 g ai/ha, scale 0 (no effect) to 100 (complete control), read-out: Plant response rating, Buckwheat, Wild): 0%
- pest or weed control at 31 g/ha (wild buckwheat; 31 g ai/ha, scale 0-100, read-out: Plant response rating, Buckwheat, Wild): 0%
- pest or weed control at 62 g/ha (wild buckwheat; 62 g ai/ha, scale 0-100, read-out: Plant response rating, Buckwheat, Wild): 75%
- pest or weed control at 125 g/ha (wild buckwheat; 125 g ai/ha, scale 0-100, read-out: Plant response rating, Buckwheat, Wild): 80%
- pest or weed control at 250 g/ha (wild buckwheat; 250 g ai/ha, scale 0-100, read-out: Plant response rating, Buckwheat, Wild): 90%
- pest or weed control at 16 g/ha (canarygrass; 16 g ai/ha, scale 0 (no effect) to 100 (complete control), read-out: Plant response rating, Canarygrass): 0%
- pest or weed control at 31 g/ha (canarygrass; 31 g ai/ha, scale 0-100, read-out: Plant response rating, Canarygrass): 0%
- pest or weed control at 62 g/ha (canarygrass; 62 g ai/ha, scale 0-100, read-out: Plant response rating, Canarygrass): 0%
- pest or weed control at 125 g/ha (canarygrass; 125 g ai/ha, scale 0-100, read-out: Plant response rating, Canarygrass): 0%
- pest or weed control at 250 g/ha (canarygrass; 250 g ai/ha, scale 0-100, read-out: Plant response rating, Canarygrass): 25%
- pest or weed control at 31 g/ha (hairy beggarticks; [3]): 40%
- pest or weed control at 62 g/ha (hairy beggarticks; [4]): 50%
- pest or weed control at 125 g/ha (hairy beggarticks; [5]): 60%
- pest or weed control at 8 g/ha (hairy beggarticks; [6]): 25%
- pest or weed control at 16 g/ha (hairy beggarticks; [7]): 35%
- pest or weed control at 16 g/ha (windgrass; 16 g ai/ha, scale 0 (no effect) to 100 (complete control), read-out: Plant response rating, Windgrass): 0%
- pest or weed control at 31 g/ha (windgrass; 31 g ai/ha, scale 0 (no effect) to 100 (complete control), read-out: Plant response rating, Windgrass): 0%
- pest or weed control at 62 g/ha (windgrass; 62 g ai/ha, scale 0-100, read-out: Plant response rating, Windgrass): 0%
- pest or weed control at 125 g/ha (windgrass; 125 g ai/ha, scale 0-100, read-out: Plant response rating, Windgrass): 0%
- pest or weed control at 250 g/ha (windgrass; 250 g ai/ha, scale 0-100, read-out: Plant response rating, Windgrass): 30%
- pest or weed control at 16 g/ha (chickweed; 16 g ai/ha, scale 0-100, read-out: Plant response rating, Chickweed): 10%
- pest or weed control at 31 g/ha (chickweed; 31 g ai/ha, scale 0 to 100 (0 no effect, 100 complete control), read-out: Plant response rating, Chickweed): 10%
- pest or weed control at 62 g/ha (chickweed; 62 g ai/ha, scale 0 to 100 (0 no effect, 100 complete control), read-out: Plant response rating, Chickweed): 20%
- pest or weed control at 125 g/ha (chickweed; 125 g ai/ha, scale 0 to 100 (0 no effect, 100 complete control), read-out: Plant response rating, Chickweed): 60%
- pest or weed control at 250 g/ha (chickweed; 250 g ai/ha, scale 0 to 100 (0 no effect, 100 complete control), read-out: Plant response rating, Chickweed): 80%
- pest or weed control at 16 g/ha (speedwell; 16 g ai/ha, scale 0 (no effect) to 100 (complete control), read-out: Plant response rating, Speedwell): 20%
- pest or weed control at 31 g/ha (speedwell; 31 g ai/ha, scale 0 (no effect) to 100 (complete control), read-out: Plant response rating, Speedwell): 50%
- pest or weed control at 62 g/ha (speedwell; 62 g ai/ha, scale 0-100, read-out: Plant response rating, Speedwell): 100%
- pest or weed control at 125 g/ha (speedwell; 125 g ai/ha, scale 0-100, read-out: Plant response rating, Speedwell): 100%
- pest or weed control at 250 g/ha (speedwell; 250 g ai/ha, scale 0-100, read-out: Plant response rating, Speedwell): 100%
- pest or weed control at 16 g/ha (bluegrass; 16 g ai/ha, scale 0 (no effect) to 100 (complete control), read-out: Plant response rating, Bluegrass): 0%
- pest or weed control at 31 g/ha (bluegrass; 31 g ai/ha, scale 0-100, read-out: Plant response rating, Bluegrass): 0%
- pest or weed control at 62 g/ha (bluegrass; 62 g ai/ha, scale 0-100, read-out: Plant response rating, Bluegrass): 0%
- pest or weed control at 125 g/ha (bluegrass; 125 g ai/ha, scale 0-100, read-out: Plant response rating, Bluegrass): 30%
- pest or weed control at 250 g/ha (bluegrass; 250 g ai/ha, scale 0-100, read-out: Plant response rating, Bluegrass): 40%
